Assay results from patent US10821115B2, “Compounds that inhibit Mcl-1 protein” (priority 2017, dated 2020).
Where two headings read alike, the source gives them in different places.

Key:
[1] = biological target: recombinant human Mcl-1 (residues 171-327) / Bim interaction (Homo sapiens (Human), UniProt Q07820); test: biochemical; type: binding; details: read-out: Mcl-1 HTRF IC50
[2] = system: human multiple myeloma cell line, OPM-2; test: Cell viability assay (OPM-2 10 FBS), CellTiter-Glo; type: cell-based
Outline: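 3000 cells/well, RPMI 1640 + 10% FBS; serial compound dilutions, 16 h, 37 °C/5% CO2.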

[3] = TR-FRET, Mcl-1(171-327) / biotin-Bim (51-76)
[4] = read-out: OPM-2 10% FBS IC50 IP, OPM-2 cells, 10% FBS, 16 h, CellTiter-Glo
[5] = Homo sapiens, OPM-2, 16 h, read-out: OPM-2 10% FBS IC50 IP, OPM-2 cells, 10% FBS, 16 h, CellTiter-Glo
[6] = 0.1 nM Mcl-1(171-327), 0.05 nM biotin-Bim (51-76)
[7] = Homo sapiens, OPM-2, 16 h, read-out: OPM-2 10% FBS IC50 IP, OPM-2 cells, 10% FBS, 16 h incubation

recombinant human Mcl-1 (residues 171-327) / Bim interaction, sequence (Q07820 171-327): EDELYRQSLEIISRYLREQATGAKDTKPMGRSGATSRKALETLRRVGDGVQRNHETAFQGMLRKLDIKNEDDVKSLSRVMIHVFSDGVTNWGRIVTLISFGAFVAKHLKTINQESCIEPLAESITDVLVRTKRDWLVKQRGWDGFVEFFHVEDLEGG

Row | SMILES | IC50 [1, 3] [nM] | IC50 [2, 4] [nM] | IC50 [2, 5] [nM] | IC50 [1, 6] [nM] | IC50 [2, 7] [nM]
1 | C[C@@H]1[C@@H](C)C/C=C/[C@@](O)(CC(=O)N(C)C)[C@@H]2CC[C@H]2CN2C[C@@]3(CCCc4cc(Cl)ccc43)COc3ccc(cc32)C(=O)NS1(=O)=O [Example 100078, 2-((1S,3′R,6′R,7′S,8′E,11′S,12′R)-6-chloro-7′-hydroxy-11′,12′-dimethyl-13′,13′-dioxido-15′-oxo-3,4-dihydro-2H-spiro[naphthalene-1,22′-[20]oxa[13]thia[1,14]diazatetracyclo [14.7.2.0~3,6~.0~19,24~]pentacosa[8,16,18,24]tetraen]-7′-yl)-N,N-dimethylacetamide] | 0.409 | 2720 |  |  | 
2 | CO[C@@]1(CC(=O)N(C)C2CCC2)/C=C/C[C@H](C)[C@@H](C)S(=O)(=O)NC(=O)c2ccc3c(c2)N(C[C@@H]2CC[C@H]21)C[C@@]1(CCCc2cc(Cl)ccc21)CO3 [Example 100450, 2-((1S,3′R,6′R,7′S,8′E,11′S,12′R)-6-chloro-7′-methoxy-11′,12′-dimethyl-13′,13′-dioxido-15′-oxo-3,4-dihydro-2H-spiro[naphthalene-1,22′-[20]oxa[13]thia[1,14]diazatetracyclo [14.7.2.0~3,6~.0~19,24~]pentacosa[8,16,18,24]tetraen]-7′-yl)-N-cyclobutyl-N-methylacetamide] | 0.336 |  | 1910 |  | 
3 | Cc1ccc([C@]2(O)/C=C/C[C@H](C)[C@@H](C)S(=O)(=O)NC(=O)c3ccc4c(c3)N(C[C@@H]3CC[C@H]32)C[C@@]2(CCCc3cc(Cl)ccc32)CO4)cn1 (single isomer, unassigned) [Example 100408] | 1.35 |  | 5620 |  | 
4 | CO[C@]1(CCN2CCN3CCOC[C@@H]3C2)/C=C/C[C@H](C)[C@@H](C)S(=O)(=O)NC(=O)c2ccc3c(c2)N(C[C@@H]2CC[C@H]21)C[C@@]1(CCCc2cc(Cl)ccc21)CO3 [Example 100425, (1S,3′R,6′R,7′R,8′E,11′S,12′R)-6-chloro-7′-(2-((9aS)-hexahydropyrazino[2,1-c][1,4]oxazin-8(1H)-yl)ethyl)-7′-methoxy-11′,12′-dimethyl-3,4-dihydro-2H,15′H-spiro[naphthalene-1,22′-[20]oxa[13]thia[1,14]diazatetracyclo [14.7.2.0~3,6~.0~19,24~]pentacosa[8,16,18,24]tetraen]-15′-one 13′,13′-dioxide] | 0.165 |  | 717 |  | 
5 | CC[C@@H]1CC/C=C/[C@](CN2CCN(C)CC2)(OC)[C@@H]2CC[C@H]2CN2C[C@@]3(CCCc4cc(Cl)ccc43)COc3ccc(cc32)C(=O)NS1(=O)=O [Example 31, (1S,3′R,6′R,7′S,8′E,12′R)-6-chloro-12′-ethyl-7′-methoxy-7′-((4-methyl-1-piperazinyl)methyl)-3,4-dihydro-2H,15′H-spiro[naphthalene-1,22′-[20]oxa[13]thia[1,14]diazatetracyclo [14.7.2.0~3,6~.0~19,24~]pentacosa[8,16,18,24]tetraen]-15′-one 13′,13′-dioxide] |  |  |  | 0.184 | 216
6 | C[C@@H]1[C@@H](C)C/C=C/[C@](O)(CN(C)CCO)[C@@H]2CC[C@H]2CN2C[C@@]3(CCCc4cc(Cl)ccc43)COc3ccc(cc32)C(=O)NS1(=O)=O [Example 129] |  |  |  | 1.69 | 2630
7 | CO[C@@]1(CSC(C)C)/C=C/C[C@H](C)[C@@H](C)S(=O)(=O)NC(=O)c2ccc3c(c2)N(C[C@@H]2CC[C@H]21)C[C@@]1(CCCc2cc(Cl)ccc21)CO3 [Example 100441, (1S,3′R,6′R,7′S,8′E,11′S,12′R)-6-chloro-7′-methoxy-11′,12′-dimethyl-7′-((2-propanylsulfanyl)methyl)-3,4-dihydro-2H,15′H-spiro[naphthalene-1,22′-[20]oxa[13]thia[1,14]diazatetracyclo [14.7.2.0~3,6~.0~19,24~]pentacosa[8,16,18,24]tetraen]-15′-one 13′,13′-dioxide] | 0.133 |  | 154 |  | 
8 | C[C@@H]1[C@@H](C)C/C=C/[C@@](O)(c2cnccc2F)[C@@H]2CC[C@H]2CN2C[C@@]3(CCCc4cc(Cl)ccc43)COc3ccc(cc32)C(=O)NS1(=O)=O (single isomer, unassigned) [Example 100536] | 0.204 |  | 826 |  | 
9 | C[C@@H]1[C@@H](C)C/C=C/[C@](O)(c2ccc(F)cn2)[C@@H]2CC[C@H]2CN2C[C@@]3(CCCc4cc(Cl)ccc43)COc3ccc(cc32)C(=O)NS1(=O)=O [Example 100403, (1S,3′R,6′R,7′R,8′E,11′S,12′R)-6-chloro-7′-(5-fluoro-2-pyridinyl)-7′-hydroxy-11′,12′-dimethyl-3,4-dihydro-2H,15′H-spiro[naphthalene-1,22′-[20]oxa[13]thia[1,14]diazatetracyclo [14.7.2.0~3,6~.0~19,24~]pentacosa[8,16,18,24]tetraen]-15′-one 13′,13′-dioxide] | 0.226 |  | 390 |  | 
10 | COCCO[C@@]1(C)/C=C/C[C@H](C)[C@@H](C)S(=O)(=O)NC(=O)c2ccc3c(c2)N(C[C@@H]2CC[C@H]21)C[C@@]1(CCCc2cc(Cl)ccc21)CO3 [Example 100466, (1S,3′R,6′R,7′S,8′E,11′S,12′R)-6-chloro-7′-(2-methoxyethoxy)-7′,11′,12′-trimethyl-3,4-dihydro-2H,15′H-spiro[naphthalene-1,22′-[20]oxa[13]thia[1,14]diazatetracyclo [14.2.0~3,6~.0~19,24~]pentacosa[8,16,18,24]tetraen]-15′-one 13′,13′-dioxide] | 0.043 |  | 1440 |  | 
11 | C#C[C@]1(OCCN2CCOCC2)/C=C/C[C@H](C)[C@@H](C)S(=O)(=O)NC(=O)c2ccc3c(c2)N(C[C@@H]2CC[C@H]21)C[C@@]1(CCCc2cc(Cl)ccc21)CO3 [Example 100504, (1S,3′R,6′R,7′S,8′E,11′S,12′R)-6-chloro-7′-ethynyl-11′,12′-dimethyl-7′-(2-(4-morpholinyl)ethoxy)-3,4-dihydro-2H,15′H-spiro[naphthalene-1,22′-[20]oxa[13]thia[1,14]diazatetracyclo [14.7.2.0~3,6~.0~19,24~]pentacosa[8,16,18,24]tetraen]-15′-one 13′,13′-dioxide] | 0.803 |  | 1890 |  | 
12 | CCN1CCN(C[C@]2(OC)/C=C/C[C@H](C)[C@@H](C)S(=O)(=O)NC(=O)c3ccc4c(c3)N(C[C@@H]3CC[C@H]32)C[C@@]2(CCCc3cc(Cl)ccc32)CO4)CC1 [Example 247, (1S,3′R,6′R,7′S,8′E,11′S,12′R)-6-chloro-7′-((4-ethyl-1-piperazinyl)methyl)-7′-methoxy-11′,12′-dimethyl-3,4-dihydro-2H,15′H-spiro[naphthalene-1,22′-[20]oxa[13]thia[1,14]diazatetracyclo [14.7.2.0~3,6~.0~19,24~]pentacosa[8,16,18,24]tetraen]-15′-one 13′,13′-dioxide] |  |  |  | 0.129 | 107
13 | C[C@@H]1[C@@H](C)C/C=C/[C@@](O)(Cc2ccccn2)[C@@H]2CC[C@H]2CN2C[C@@]3(CCCc4cc(Cl)ccc43)COc3ccc(cc32)C(=O)NS1(=O)=O [Example 100242, (1S,3′R,6′R,7′S,8′E,11′S,12′R)-6-chloro-7′-hydroxy-11′,12′-dimethyl-7′-(2-pyridinylmethyl)-3,4-dihydro-2H,15′H-spiro[naphthalene-1,22′-[20]oxa[13]thia[1,14]diazatetracyclo [14.7.2.0~3,6~.0~19,24~]pentacosa[8,16,18,24]tetraen]-15′-one 13′,13′-dioxide] | 2.15 | 1450 |  |  | 
